Assay results published in US20260355165A1, “2,3,4,9-TETRAHYDRO-1H-PYRIDO[3,4-B]INDOLE DERIVATIVES AS ESTROGEN RECEPTOR MODULATORS FOR THE TREATMENT OF CANCER” (Olema Pharmaceuticals, Inc., priority 2022, published 2026).

The molecules below were run against T1, estrogen receptor (Homo sapiens, UniProt P03372) (assay: AP assay (alkaline phosphatase activity in ECC-1 cells), agonist mode (absence of E2) and antagonist mode (presence of 500 pM E2)). Conditions: 3 days, AP activity normalized to 500 pM E2 alone, agonist and antagonist mode combined.
T1 construct: endogenous in cells; host or cells: ECC-1 cells
T1 sequence (P03372 1-595): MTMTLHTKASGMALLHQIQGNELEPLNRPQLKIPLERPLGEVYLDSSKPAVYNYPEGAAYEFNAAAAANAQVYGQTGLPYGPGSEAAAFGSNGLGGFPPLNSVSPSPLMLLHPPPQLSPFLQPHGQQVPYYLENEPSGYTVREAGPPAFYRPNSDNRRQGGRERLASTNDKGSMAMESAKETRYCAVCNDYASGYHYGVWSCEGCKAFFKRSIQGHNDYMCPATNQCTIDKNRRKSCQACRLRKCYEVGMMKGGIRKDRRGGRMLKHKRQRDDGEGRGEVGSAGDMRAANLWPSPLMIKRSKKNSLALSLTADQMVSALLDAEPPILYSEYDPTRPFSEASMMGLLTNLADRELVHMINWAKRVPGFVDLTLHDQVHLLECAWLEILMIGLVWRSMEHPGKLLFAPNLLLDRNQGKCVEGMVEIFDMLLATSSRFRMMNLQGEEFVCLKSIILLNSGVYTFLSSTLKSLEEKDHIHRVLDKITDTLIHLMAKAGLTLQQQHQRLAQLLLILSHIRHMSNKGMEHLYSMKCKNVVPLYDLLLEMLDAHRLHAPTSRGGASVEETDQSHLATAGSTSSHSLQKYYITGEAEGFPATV
Type: cell-based
Procedure: ECC-1 cells were trypsinized and resuspended in hormone-depleted media and plated at a density of 15 k cells per well into a 96-well plate for at least 4 hours. Cells were treated with test compounds in the absence of E2 (for agonist mode) or in the presence of 500 pM E2 (for antagonist mode) for 3 days and plates were subsequently frozen at −80 °C. Thawed plates were incubated with a chromogenic substrate of AP, p-nitrophenyl phosphate (Thermo Fisher Scientific), for 40 minutes at 42 °C, and absorbances were read at 405 nm. AP activity was normalized to the activity of 500 pM E2 alone.
The compound numbers correspond to the compound numbers of Table 1 and 2. Compounds having an activity designated as “+” provided estrogen receptor agonism having (i) at least 80% increase in the E2-normalized signal in the AP assay (agonist mode) and (ii) no more than 80% reduction in the E2-normalized signal in the AP assay (antagonist mode). Compounds having an activity designated as “++” provided estrogen receptor antagonism having (i) between 10% and 80% increase in the E2-normalized signal in the AP assay (agonist mode) and (ii) between 10% and 80% reduction in the E2-normalized signal in the AP assay (antagonist mode).

Structure (SMILES)	Activity (estrogen receptor modulation, e.g., agonism and antagonism)
CCCN1CC(n2ncc3cc([C@@H]4c5[nH]c6ccccc6c5C[C@@H](C)N4CC(F)(F)CO)ccc32)C1 (racemic) [Compound I-105, 2,2-difluoro-3-[rac-(1R,3R)-3-methyl-1-[1-(1-propylazetidin-3-yl)indazol-5-yl]-1,3,4,9-tetrahydropyrido[3,4-b]indol-2-yl]propan-1-ol]	++ (estrogen receptor antagonism having (i) between 10% and 80% increase in the E2-normalized signal in the AP assay (agonist mode) and (ii) between 10% and 80% reduction in the E2-normalized signal in the AP assay (antagonist mode))
C[C@@H]1Cc2c([nH]c3ccccc23)[C@@H](c2ccc3c(cnn3C3CN(CCCF)C3)c2)N1CC(F)(F)CO (racemic) [Compound I-106, 2,2-difluoro-3-[rac-(1R,3R)-1-[1-[1-(3-fluoropropyl)azetidin-3-yl]indazol-5-yl]-3-methyl-1,3,4,9-tetrahydropyrido[3,4-b]indol-2-yl]propan-1-ol]	++ (estrogen receptor antagonism having (i) between 10% and 80% increase in the E2-normalized signal in the AP assay (agonist mode) and (ii) between 10% and 80% reduction in the E2-normalized signal in the AP assay (antagonist mode))
CCN1CC(n2cc3cc([C@@H]4c5[nH]c6ccccc6c5C[C@@H](C)N4CC(F)(F)CO)ccc3n2)C1 (racemic) [Compound I-107, 2,2-difluoro-3-[rac-(1R,3R)-1-[2-(1-ethylazetidin-3-yl)indazol-5-yl]-3-methyl-1,3,4,9-tetrahydropyrido[3,4-b]indol-2-yl]propan-1-ol]	+ (estrogen receptor agonism having (i) at least 80% increase in the E2-normalized signal in the AP assay (agonist mode) and (ii) no more than 80% reduction in the E2-normalized signal in the AP assay (antagonist mode))
CCCN1CC(n2cc3cc([C@@H]4c5[nH]c6ccccc6c5C[C@@H](C)N4CC(F)(F)CO)ccc3n2)C1 (racemic) [Compound I-108, 2,2-difluoro-3-[rac-(1R,3R)-3-methyl-1-[2-(1-propylazetidin-3-yl)indazol-5-yl]-1,3,4,9-tetrahydropyrido[3,4-b]indol-2-yl]propan-1-ol]	+ (estrogen receptor agonism having (i) at least 80% increase in the E2-normalized signal in the AP assay (agonist mode) and (ii) no more than 80% reduction in the E2-normalized signal in the AP assay (antagonist mode))
C[C@@H]1Cc2c([nH]c3ccccc23)[C@@H](c2c[nH]c3cc(CO)ccc23)N1CC(C)(C)F [Compound I-1, [3-[(1R,3R)-2-(2-fluoro-2-methyl-propyl)-3-methyl-1,3,4,9-tetrahydropyrido[3,4-b]indol-1-yl]-1H-indol-6-yl]methanol]	+ (estrogen receptor agonism having (i) at least 80% increase in the E2-normalized signal in the AP assay (agonist mode) and (ii) no more than 80% reduction in the E2-normalized signal in the AP assay (antagonist mode))
C[C@@H]1Cc2c([nH]c3ccccc23)[C@@H](c2n[nH]c3cc(CO)ccc23)N1CC(C)(C)F [Compound I-2, [3-[(1S,3R)-2-(2-fluoro-2-methyl-propyl)-3-methyl-1,3,4,9-tetrahydropyrido[3,4-b]indol-1-yl]-1H-indazol-6-yl]methanol]	+ (estrogen receptor agonism having (i) at least 80% increase in the E2-normalized signal in the AP assay (agonist mode) and (ii) no more than 80% reduction in the E2-normalized signal in the AP assay (antagonist mode))
C[C@@H]1Cc2c([nH]c3ccccc23)[C@@H](c2c[nH]c3cc(C(=O)O)ccc23)N1CC(C)(C)F [Compound I-3, 3-[(1R,3R)-2-(2-fluoro-2-methyl-propyl)-3-methyl-1,3,4,9-tetrahydropyrido[3,4-b]indol-1-yl]-1H-indole-6-carboxylic acid]	+ (estrogen receptor agonism having (i) at least 80% increase in the E2-normalized signal in the AP assay (agonist mode) and (ii) no more than 80% reduction in the E2-normalized signal in the AP assay (antagonist mode))
C[C@@H]1Cc2c([nH]c3ccccc23)[C@@H](c2n[nH]c3cc(C(=O)O)ccc23)N1CC(C)(C)F [Compound I-4, 3-[(1S,3R)-2-(2-fluoro-2-methyl-propyl)-3-methyl-1,3,4,9-tetrahydropyrido[3,4-b]indol-1-yl]-1H-indazole-6-carboxylic acid]	+ (estrogen receptor agonism having (i) at least 80% increase in the E2-normalized signal in the AP assay (agonist mode) and (ii) no more than 80% reduction in the E2-normalized signal in the AP assay (antagonist mode))
C[C@@H]1Cc2c([nH]c3ccccc23)[C@@H](c2c[nH]c3cc(CN4CC(CF)C4)ccc23)N1CC(C)(C)F [Compound I-5, (1R,3R)-1-[6-[[3-(fluoromethyl)azetidin-1-yl]methyl]-1H-indol-3-yl]-2-(2-fluoro-2-methyl-propyl)-3-methyl-1,3,4,9-tetrahydropyrido[3,4-b]indole]	++ (estrogen receptor antagonism having (i) between 10% and 80% increase in the E2-normalized signal in the AP assay (agonist mode) and (ii) between 10% and 80% reduction in the E2-normalized signal in the AP assay (antagonist mode))
CC1CN(Cc2ccc3c([C@@H]4c5[nH]c6ccccc6c5C[C@@H](C)N4CC(C)(C)F)c[nH]c3c2)C1 [Compound I-6, (1R,3R)-2-(2-fluoro-2-methyl-propyl)-3-methyl-1-[6-[(3-methylazetidin-1-yl)methyl]-1H-indol-3-yl]-1,3,4,9-tetrahydropyrido[3,4-b]indole]	++ (estrogen receptor antagonism having (i) between 10% and 80% increase in the E2-normalized signal in the AP assay (agonist mode) and (ii) between 10% and 80% reduction in the E2-normalized signal in the AP assay (antagonist mode))
CCCN(C)Cc1ccc2c([C@@H]3c4[nH]c5ccccc5c4C[C@@H](C)N3CC(C)(C)F)c[nH]c2c1 [Compound I-7, N-[[3-[(1R,3R)-2-(2-fluoro-2-methyl-propyl)-3-methyl-1,3,4,9-tetrahydropyrido[3,4-b]indol-1-yl]-1H-indol-6-yl]methyl]-N-methyl-propan-1-amine]	+ (estrogen receptor agonism having (i) at least 80% increase in the E2-normalized signal in the AP assay (agonist mode) and (ii) no more than 80% reduction in the E2-normalized signal in the AP assay (antagonist mode))
C[C@@H]1Cc2c([nH]c3ccccc23)[C@@H](c2c[nH]c3cc(CNCCCF)ccc23)N1CC(C)(C)F [Compound I-8, 3-fluoro-N-[[3-[(1R,3R)-2-(2-fluoro-2-methyl-propyl)-3-methyl-1,3,4,9-tetrahydropyrido[3,4-b]indol-1-yl]-1H-indol-6-yl]methyl]propan-1-amine]	+ (estrogen receptor agonism having (i) at least 80% increase in the E2-normalized signal in the AP assay (agonist mode) and (ii) no more than 80% reduction in the E2-normalized signal in the AP assay (antagonist mode))
C[C@@H]1Cc2c([nH]c3ccccc23)[C@@H](c2c[nH]c3cc(CN(C)CCCF)ccc23)N1CC(C)(C)F [Compound I-9, 3-fluoro-N-[[3-[(1R,3R)-2-(2-fluoro-2-methyl-propyl)-3-methyl-1,3,4,9-tetrahydropyrido[3,4-b]indol-1-yl]-1H-indol-6-yl]methyl]-N-methyl-propan-1-amine]	+ (estrogen receptor agonism having (i) at least 80% increase in the E2-normalized signal in the AP assay (agonist mode) and (ii) no more than 80% reduction in the E2-normalized signal in the AP assay (antagonist mode))
